Laboratory results as given in publication PMC13065503.

Assay: Cys/Cys side-chain stapling of bis-cysteine Omomyc mutants by S-alkylation with bis(bromomethyl)arenes (1.25 eq): 4,4'-bis(bromomethyl)biphenyl for i,i+7 or 1,3-bis(bromomethyl)benzene (with 2 eq TCEP) for i,i+4; pH 8
Settings: the molecule shown is the open-chain precursor; 22-membered ring; 100 mM aq NH4HCO3 pH 8 / 25% MeCN; 0.1 mM
For “H-AMADIGSMAC(SH)EENC(SH)KRRTHNVLERQRRNELKRSFFALRDQIPELENNEKAPKVVILKKATAYILSVQAETQKLISEIDLLRKQNEQLKHKLEQLRNSAA-OH”, the ring closure, isolated yield was 38%. “H-AMADIGSMATEENC(SH)KRRC(SH)HNVLERQRRNELKRSFFALRDQIPELENNEKAPKVVILKKATAYILSVQAETQKLISEIDLLRKQNEQLKHKLEQLRNSAA-OH” gave a ring closure, isolated yield of 26%.

Same assay, conditions: the molecule shown is the open-chain precursor; 36-membered ring; 100 mM aq NH4HCO3 pH 8 / 25% MeCN; 0.1 mM
With “H-AMADIGSMATEENC(SH)KRRTHNC(SH)LERQRRNELKRSFFALRDQIPELENNEKAPKVVILKKATAYILSVQAETQKLISEIDLLRKQNEQLKHKLEQLRNSAA-OH” the ring closure, isolated yield was 67%. In the case of “H-AMADIGSMATEENVKRRTHNC(SH)LERQRRC(SH)ELKRSFFALRDQIPELENNEKAPKVVILKKATAYILSVQAETQKLISEIDLLRKQNEQLKHKLEQLRNSAA-OH”, the ring closure, isolated yield is reported as 69%. “H-AMADIGSMATEENVKRRTHNC(SH)LERQRRC(SH)ELKRSFFALRDQIPELENNEKAPKVVILKKATAYILSVQAETQKLISEIDLLRKQNEQLKHKLEQLRNSAAPAAKRVKLD-OH” gave a ring closure, isolated yield of 60%. Substance “H-AMADIGSPAAKRVKLDMATEENVKRRTHNC(SH)LERQRRC(SH)ELKRSFFALRDQIPELENNEKAPKVVILKKATAYILSVQAETQKLISEIDLLRKQNEQLKHKLEQLRNSAA-OH” has a ring closure, isolated yield of 46%.
